The nature of test [1]: polymyxin sensitization of S. Typhimurium, late-stage follow-up, mechanism study for PhoP regulon inhibitor project, WT and phoP- strains, round 3 (AID 449735). As to conditions: S. Typhimurium WT vs phoP-, polymyxin IC50 shift, OD600, at 150 µM, stronger effect = higher value.
Test [2] relates to S. Typhimurium WT vs phoP-, polymyxin IC50 shift, OD600. The description is as above.
[3] abbreviates: measured here: WT strain IC50 shift.
[4] abbreviates: measured here: phoP- strain IC50 shift.

The values that follow come from PubChem BioAssay AID449735 (Southern Research Specialized Biocontainment Screening …, 2010).

Active and inactive are the calls of the source.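 How the source made its calls: active means drop in polymyxin IC50 at top compound dose in wild type more than twice that in PhoP-lacking strain; inactive means the rest.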

With `O=C(Nc1ccc(I)cc1)N1CCCN(Cc2ccccc2F)C1`, in test [1], the polymyxin IC50 shift difference WT - phoP- was -8.3 (inactive). The polymyxin IC50 shift was found to be 9.92 in test [1] (setting [3]) and 18.2 in test [1] (setting [4]).
For `O=C(Nc1ccc(Cl)cc1)N1CCCN(Cc2ccc(Br)cc2)C1`, in that order: -1.52 (inactive), 1.77 and 3.29.
Turning to `S=C(NCCc1ccc(Cl)cc1)Nc1ccncc1`, in test [1], the polymyxin IC50 shift difference WT - phoP- was -0.21 (inactive). In addition, the values for the polymyxin IC50 shift in test [1] (setting [3]) and in test [1] (setting [4]) were 0.05 and 0.26, respectively.
Consider `O=C(Nc1ccc(Cl)cc1)N1CCCN(Cc2ccccc2Br)C1`, for which the polymyxin IC50 shift difference WT - phoP- in test [1] is -4.93 (inactive). The polymyxin IC50 shift in test [1] (setting [3]) was -2.84; in test [1] (setting [4]), 2.09.
Consider `CCn1cc(C(=O)O)c(=O)c2cc(F)c(N3CCN(C(=S)Nc4ccccc4C)CC3)cc21`, for which, in test [2], the IC50 is 30 µM. Also, the polymyxin IC50 shift stood at 15.9 in test [1] (setting [3]) and 3.07 in test [1] (setting [4]).
Regarding `CCn1cc(C(=O)O)c(=O)c2cc(F)c(N3CCN(C(=S)Nc4ccccc4OC)CC3)cc21`, the polymyxin IC50 shift difference WT - phoP- in test [1] is -0.94 (inactive). Further, the polymyxin IC50 shift in test [1] (setting [3]) was -2.11; in test [1] (setting [4]) it was -1.17.

The IC50 is the concentration that inhibits the measured activity by half.
